In publication PMC10733463, “Berberine-microbiota interplay: orchestrating gut health through modulation of the gut microbiota and metabolic transformation into bioactive metabolites” (Frontiers in Pharmacology, 2023):
Where two headings read alike, the source gives them in different places.

Experiments:
B. coccoides (DSM 935) = settings: Blautia coccoides, 10 µg/mL, pH 6
[1] = UPLC-MS/MS quantification of berberine and metabolites in plasma; format: in vivo, Ross 308 broiler chickens; settings: lowest berberine supplementation level (0.1 g/kg feed)
Source text: The study was undertaken following the guidelines of the ethics committee of the Faculty of Veterinary Medicine and Bioscience Engineering, Ghent University, in accordance with the EU Directive 2010/63/EU. One-day-old Ross 308 male broilers were obtained from a local hatchery and housed in pens on wood shavings. They were allotted into 4 groups, with three replicate pens per group each housing 8 chickens. The animals were not vaccinated. Water and commercial starter feed (day 1–12, FARM 1 Mash, Country’s Best, Versele Laga, Deinze, Belgium) or grower (day 13–21, FARM 2 mash, Country’s Best, Versele Laga, Deinze, Belgium) were provided ad libitum. The control group received the standard non-supplemented diets, whereas the chickens in other groups were fed the same feed supplemented with 0.1, 0.5 or 1 g berberine/kg feed throughout the whole trial period. At day 21, 4 birds per pen were weighted then euthanized by sodium pentobarbital injection for sampling. Individual jejunal, ileal, caecal and colonic contents were stored at −20°C for microbiota composition analysis (16S rRNA gene sequencing). Additionally, ileal and caecal content samples were collected and stored at −20°C for berberine and berberine-derived metabolite quantification. Duodenal tissue samples were collected and fixed in 4% phosphate buffered formaldehyde for histological analysis. Blood samples were collected in heparin tubes and centrifuged at 524 g for 10 min to recover the plasma fraction, which was further mixed with 17 mg/mL L-ascorbic acid for dihydroberberine stabilization, and stored at −20°C for berberine and berberine-derived metabolite quantification.
The column temperature was maintained at 25°C. The autosampler temperature was set at 10°C.
A 137.5 µL plasma sample containing 17 mg/mL L-ascorbic acid was used for sample extraction. The ascorbic acid solution was added to prevent oxidation of dihydroberberine to berberine during sample storage ([Feng et al., 2015]). The plasma sample was transferred to an OstroTM 96 well-plate (25 mg) (Waters). Subsequently, 50 µL Milli-Q water and 25 µL of an internal standard solution containing 100 ng/mL of both berberine-d6 and tetrahydropalmatine were added. A 640 µL volume of 1% (v/v) formic acid solution in acetonitrile (1/3 ratio) was added, followed by gentle mixing. Vacuum was applied on the Ostro™ plate for 5 min and the eluate was collected in a 2 mL square 96-well collector plate. The sample was transferred in a glass tube and evaporated at 40°C under a gentle stream of nitrogen in a Pierce (Rockford, United States) Reacti-Therm III™ Heating Module and Reacti-Vap™ III Module. The dried sample extract was reconstituted in 500 µL Milli-Q water, followed by injection of a 5 µL sample aliquot onto the UPLC-MS/MS apparatus. Quantification was based on the ratio of the analyte peak area compared to the peak area of the internal standard berberine-d6.
Calibration standards and quality control samples were prepared as follows: 137.5 µL of blank plasma stabilized with 17 mg/mL L-ascorbic acid were supplemented with 25 µL mixed working solutions of berberine and metabolites (except dihydroberberine) at different levels, 25 µL of dihydroberberine working solution, stabilized with 17 mg/mL L-ascorbic acid, at different levels and 25 µL of an internal standard solution containing 100 ng/mL of both berberine-d6 and tetrahydropalmatine. The calibration curve was in the 0.1–100 ng/mL range, including 0.1, 0.5, 1, 2.5, 5, 10, 25, […], 50 and 100 ng/mL levels.
The UPLC-MS/MS analysis method for the quantification of berberine and berberine-derived metabolites both in plasma and ileal/caecal intestinal content was validated to the guidelines of the European Medicines Agency, i.e., of the Committee for Veterinary Medicinal Products (EMEA/CVMP/VICH/463202/2009) and of the Committee for Medicinal Products for Human Use (EMEA/CHMP/EWP/192217/20), and in accordance with the EU Directive 2002/657/EC. […]

caecal microbiota = test: SCFA quantification in caecal microbiota cultures supplemented with berberine or berberrubine; format: cell-based, broiler chicken; settings: 24 h
Description: As berberine and its demethylated metabolites correlated with SCFAs in vivo, their ability to directly influence SCFA metabolism was assessed in vitro. […] Cultures were centrifuged at 3,724 g for 5 min 1 mL 1:2 diluted supernatant in Milli-Q water was used for SCFA analysis. Acetate, propionate and butyrate were quantified using the GC-FID method described by ([De […] et al., 2010]). This method involves the extraction of SCFA from samples with diethyl ether after the addition of 2-methyl hexanoic acid as an internal standard.

[2] = rats, 2021, cited from earlier work; for Total recovery in feces: ref Ma et al., 2013, Feng et al.
[3] = system: Blautia spp., A. butyraticus, E. limosum; test: Growth of bacteria in presence of increasing concentrations of berberine; format: cell-based; settings: 10 μg/mL berberine, M2GSC, anaerobic
Source text: Samples were collected and processed as described before.
Supplementary Figure S1 – Growth of bacteria in presence of increasing concentrations of berberine in M2GSC medium (μg/mL) under anaerobic conditions. Strains were further tested for their ability to metabolize berberine (Figure 14). Strains were selected according to OTUs which relative abundance was positively correlated to berberrubine or thalifendine levels, including Blautia spp. and A. butyraticus. E. limosum was included as it was expected to demethylate berberine due to previous literature (Possemiers et al., 2008; Rich et al., 2022). Overnight cultures were 1:1000 diluted in M2GSC medium supplemented with 0, 1, 10 or 100 µg/mL berberine and grown for 24 hours under anaerobic conditions. Absorbance data at 600 nm are expressed as the mean ± standard deviation (n = 3). *: p < 0.05; ***: p < 0.001.

[4] = oral administration of berberine, ref Feng et al.

Log2(fold change) of metabolite response at 48 h, B. coccoides pure culture over berberine-medium (B. coccoides (DSM 935)) | Quantification in plasma [1] | Structure (SMILES) | Concentrations of acetate, butyrate and propionate in caecal microbiota cultures (caecal microbiota; higher concentration (2.5 µM)) | Excretion in bile [2, 4] [%] | Excretion in feces [2, 4] [%] | Excretion in urine [2, 4] [%] | Total recovery in feces ([2]; oral berberine 48.2 mg/kg) [%] | Total recovery in feces ([2]; oral berberine 200 mg/kg) [%] | SCFA production in caecal microbiota cultures (caecal microbiota; 25, 2.5 µM) | Growth of the tested bacteria [3]
1.96 | could also not be quantified | COc1ccc2cc3[n+](cc2c1O)CCc1cc2c(cc1-3)OCO2 [Berberrubine, berberrubine chloride] | increased | 2.6 | 18.6 | 1.2 | 18.6 | 1.14 |  | 
-2.05 | could also not be quantified | COc1cc2c(cc1O)CC[n+]1cc3c(OC)c(OC)ccc3cc1-2 [Jatrorrhizine, Jatrorrhizine chloride] |  |  |  |  |  |  |  | 
 |  | COc1ccc2cc3[n+](cc2c1OC)CCc1cc2c(cc1-3)OCO2 [Berberine, Berberine chloride] |  |  |  |  | 8.4 | 19.05 | did not significantly affect | not significantly affected
